Results reported in patent US12180187B2, “1-phenyl-5-azinylpyrazolyl-3-oxyalkyl acids and their use for controlling unwanted plant growth” (BAYER AKTIENGESELLSCHAFT, priority 2019, dated 2024).

How the values were obtained:
ECHCG = test: Pre-emergence action against ECHCG, 1280 g/ha; assay type: in vivo, Echinochloa crus-galli; settings: visual scoring after about 3 weeks vs untreated controls, 100% = plants have died, 0% = like control plants
Outline: (§1)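 Greenhouse pre-emergence test on sown seeds in sandy loam; soil-surface spray of formulated compound with 0.5% additive at 600 L/ha water. Scored visually, % vs untreated, after about 3 weeks.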

POAAN [1] = test: Pre-emergence action against POAAN, 1280 g/ha; assay type: in vivo, Poa annua; settings: visual scoring after about 3 weeks vs untreated controls, 100% = plants have died, 0% = like control plants
Outline: as §1

SETVI [2] = test: Pre-emergence action against SETVI, 1280 g/ha; assay type: in vivo, Setaria viridis; settings: visual scoring after about 3 weeks vs untreated controls, 100% = plants have died, 0% = like control plants
Outline: as §1

AMARE [3] = test: Pre-emergence action against AMARE, 1280 g/ha; assay type: in vivo, Amaranthus retroflexus; settings: scored visually after about 3 weeks vs untreated controls (100% = plants have died)
Outline: as §1

MATIN = test: Pre-emergence action against MATIN, 1280 g/ha; assay type: in vivo, Tripleurospermum inodorum (Matricaria inodora); settings: scored visually after about 3 weeks vs untreated controls (100% = plants have died)
Outline: as §1

STEME = test: Pre-emergence action against STEME, 1280 g/ha; assay type: in vivo, Stellaria media; settings: scored visually after about 3 weeks vs untreated controls (100% = plants have died)
Outline: as §1

VERPE = test: Pre-emergence action against VERPE, 1280 g/ha; assay type: in vivo, Veronica persica; settings: scored visually after about 3 weeks vs untreated controls (100% = plants have died)
Outline: as §1

ALOMY = test: Pre-emergence action at 320 g/ha against ALOMY; assay type: in vivo, Alopecurus myosuroides; settings: scored visually after about 3 weeks vs untreated controls (100% = plants have died)
Outline: (§2)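 Application: aqueous WP or EC with 0.5% additive on soil covering seeds, 600 l/ha. Read-out: visual percent damage after ~3 weeks in greenhouse, untreated pots as reference.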

AVEFA = test: Pre-emergence action at 320 g/ha against AVEFA; assay type: in vivo; settings: visual scoring after about 3 weeks vs untreated controls
Outline: as §2

DIGSA = test: Pre-emergence action at 320 g/ha against DIGSA; assay type: in vivo, Digitaria sanguinalis; settings: visual scoring after about 3 weeks vs untreated controls
Outline: as §2

SETVI [4] = test: Pre-emergence action at 320 g/ha against SETVI; assay type: in vivo, Setaria viridis; settings: visual scoring after about 3 weeks vs untreated controls
Outline: as §2

AMARE [5] = test: Pre-emergence action at 320 g/ha against AMARE; assay type: in vivo, Amaranthus retroflexus; settings: visual scoring after about 3 weeks vs untreated controls
Outline: as §2

POLCO = test: Pre-emergence action at 320 g/ha against POLCO; assay type: in vivo, Fallopia convolvulus (Polygonum convolvulus); settings: visual scoring after about 3 weeks vs untreated controls
Outline: as §2

LOLRI = test: Post-emergence action against LOLRI, 1.28 kg/ha; assay type: in vivo, Lolium rigidum; settings: dosage 1280 g/ha, visual rating about 3 weeks after treatment vs untreated controls
Outline: (§3)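 Spray at one-leaf stage with WP/EC + 0.5% additive, 600 L water/ha. Greenhouse, optimum conditions, ~3 wk. Visual % control vs untreated; 0 = no effect, 100 = dead.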

POAAN [6] = test: Post-emergence action against POAAN, 1.28 kg/ha; assay type: in vivo, Poa annua; settings: dosage 1280 g/ha, visual rating about 3 weeks after treatment vs untreated controls
Outline: as §3

SETVI [7] = test: Post-emergence action against SETVI, 1.28 kg/ha; assay type: in vivo, Setaria viridis; settings: dosage 1280 g/ha, visual rating about 3 weeks after treatment vs untreated controls
Outline: as §3

| SMILES | Pre-emergence action against ECHCG (ECHCG) [%] | Pre-emergence action against POAAN (POAAN [1]) [%] | Pre-emergence action against SETVI (SETVI [2]) [%] | Pre-emergence action against AMARE (AMARE [3]) [%] | Pre-emergence action against MATIN (MATIN) [%] | Pre-emergence action against STEME (STEME) [%] | Pre-emergence action against VERPE (VERPE) [%] | Pre-emergence action at 320 g/ha against ALOMY in % (ALOMY) [%] | Pre-emergence action against AVEFA in % (AVEFA) [%] | Pre-emergence action against DIGSA in % (DIGSA) [%] | Pre-emergence action against SETVI in % (SETVI [4]) [%] | Pre-emergence action against AMARE in % (AMARE [5]) [%] | Pre-emergence action against POLCO in % (POLCO) [%] | Post-emergence action against LOLRI (LOLRI) [%] | Post-emergence action against POAAN (POAAN [6]) [%] | Post-emergence action against SETVI (SETVI [7]) [%] |
| --- | --- | --- | --- | --- | --- | --- | --- | --- | --- | --- | --- | --- | --- | --- | --- | --- |
| COC(=O)COc1nn(-c2ccccc2)c(-c2ccc(F)nc2)c1Br [VII-018] | 100 | 100 | 100 | 100 | 90 | 100 | 100 | 100 | 80 | 100 | 100 | 100 | 100 | 90 | 100 | 100 |
| CCOC(=O)C(C)Oc1nn(-c2ccccc2F)c(-c2ccc(F)nc2)c1Br (centres unmarked) [VII-019] | 100 | 100 | 100 | 100 | 90 | 100 | 100 | 100 | 90 | 100 | 100 | 100 | 100 | 100 | 100 | 90 |
| COC(=O)COc1nn(-c2ccccc2F)c(-c2ccc(F)nc2)c1C(F)(F)F [VII-031] | 90 | 100 | 100 | 100 | 100 | 100 | 100 | 100 | 100 | 100 | 100 | 100 | 100 | 100 | 100 | 90 |
| COC(=O)C(C)Oc1nn(-c2ccccc2)c(-c2cccnc2)c1Cl (centres unmarked) [VII-032] | 100 | 100 | 100 | 100 | 90 | 100 | 100 | 100 | 80 | 90 | 90 | 100 | 90 | 100 | 100 | 90 |
| COC(=O)COc1nn(-c2ccccc2F)c(-c2cncc(F)c2)c1Br [VII-035] | 100 | 100 | 100 | 100 | 100 | 100 | 100 | 100 | 90 | 100 | 100 | 100 | 90 | 100 | 100 | 90 |
